{
  "source": "patent US12571793B2",
  "about": "“Method for evaluating biofilm formation, and invertebrate for use in evaluating biofilm formation” (MEIJI PHARMACEUTICAL UNIVERSITY, priority 2020, dated 2026)",
  "test_system": "C. albicans strain SC5314",
  "test": "Test Example 5: suppression effect of antifungal drugs on biofilm formation on polyurethane fibers in silkworms, drug given 12 hours after inoculation",
  "format": "in vivo, Candida albicans (in silkworm)",
  "conditions": "antifungal drug administered 12 hours after inoculation of C. albicans; fibers extracted 24 hours after inoculation; compared with physiological saline",
  "method": "Biofilms formed on the surface of the polyurethane fibers after the culture were stained with crystal violet, and the biofilms were quantified. The biofilms were stained as follows. Each of the polyurethane fibers were moved to a 1.5-ml tube and washed with 1 ml of distilled water twice. Then, 500 μl of an aqueous 0.1% crystal violet solution was added, and the polyurethane fiber was placed at room temperature for 20 to 60 minutes. The stain solution was discarded, and the polyurethane fiber were washed with 1 ml of distilled water 3 times. The polyurethane fibers were washed with 1 ml of ethanol twice and then air-dried. The polyurethane fibers were observed under a microscope (×10, CH30, Olympus Corporation), and photographs were taken. Then, 500 μl of 33% acetic acid solution was added, and the polyurethane fibers were left to stand at room temperature for 2 hours or more. The absorbance (OD590) of the sample to which 500 μl of distilled water was added to adjust the total volume to 1 ml was measured.\nNext, it was examined whether biofilms by C. albicans were formed on the surface of the polyurethane fibers in the bodies of silkworms. Silkworms in which the polyurethane fibers were inserted were inoculated with 50 μl of physiological saline solution (saline) or 50 μl of a suspension of C. albicans strain SC5314 (7×10^7 cells/ml) and bred at 27° C. for 24 hours. […]",
  "data": [
    {"compound": "C[C@@H]1[C@H](O)[C@@H](C)/C=C/C=C/C=C/C=C/C=C/C=C/C=C/[C@H](O[C@@H]2O[C@H](C)[C@@H](O)[C@H](N)[C@@H]2O)C[C@@H]2O[C@](O)(C[C@@H](O)C[C@@H](O)[C@H](O)CC[C@@H](O)C[C@@H](O)CC(=O)O[C@H]1C)C[C@H](O)[C@H]2C(=O)O", "note": "[amphotericin B]", "values": [
      {"measurement": "biofilm formation on the polyurethane fiber in the bodies of the silkworms (crystal violet, absorbance 590 nm)", "result": "significantly suppressed"}
    ]}
  ]
}
